The results in this text go back to article PMC8474115 (Journal of Medicinal Chemistry, 2021).

Holding throughout (assay): Eurofins SafetyScreen panel
Assay [1] deals with T1, Norepinephrine Transporter (NET) (Homo sapiens, UniProt P23975).
T1 construct: Eurofins (contract screening, SafetyScreen panel) PP223
The format is binding.

The target of a further assay is T2, Chemokine CCR2 (IL-8RB) (Homo sapiens, UniProt P25025).
T2 construct: purchased Eurofins (Panlabs) SafetyScreen87 Panel
The format is binding. The settings on record: read-out: %inh.

A further assay addresses T3, Histamine H1 (Homo sapiens, UniProt P35367).
T3 construct: Eurofins (contract screening, SafetyScreen panel) PP223
The format is binding.

For a further assay, the target named is T4, Protein Tyr Kinase, LCK (Homo sapiens, UniProt P06239).
T4 construct: Eurofins (contract screening, SafetyScreen panel) PP223
The class given is biochemical.

The next assay deals with T5, ACE (Oryctolagus cuniculus, UniProt P12822).
T5 construct: Eurofins
The format is biochemical, rabbit.

For a further assay, the target named is T6, COX-2 (Homo sapiens, UniProt P35354).
T6 construct: Eurofins
The class given is biochemical.

The mark [2] stands for this setting: read-out: %inh, 10 μM, additional batch.

Where a name gives a salt, the structure may show the parent alone. Read-outs that look alike come from different tables or passages of the source.

T1 sequence (P23975 whole entry): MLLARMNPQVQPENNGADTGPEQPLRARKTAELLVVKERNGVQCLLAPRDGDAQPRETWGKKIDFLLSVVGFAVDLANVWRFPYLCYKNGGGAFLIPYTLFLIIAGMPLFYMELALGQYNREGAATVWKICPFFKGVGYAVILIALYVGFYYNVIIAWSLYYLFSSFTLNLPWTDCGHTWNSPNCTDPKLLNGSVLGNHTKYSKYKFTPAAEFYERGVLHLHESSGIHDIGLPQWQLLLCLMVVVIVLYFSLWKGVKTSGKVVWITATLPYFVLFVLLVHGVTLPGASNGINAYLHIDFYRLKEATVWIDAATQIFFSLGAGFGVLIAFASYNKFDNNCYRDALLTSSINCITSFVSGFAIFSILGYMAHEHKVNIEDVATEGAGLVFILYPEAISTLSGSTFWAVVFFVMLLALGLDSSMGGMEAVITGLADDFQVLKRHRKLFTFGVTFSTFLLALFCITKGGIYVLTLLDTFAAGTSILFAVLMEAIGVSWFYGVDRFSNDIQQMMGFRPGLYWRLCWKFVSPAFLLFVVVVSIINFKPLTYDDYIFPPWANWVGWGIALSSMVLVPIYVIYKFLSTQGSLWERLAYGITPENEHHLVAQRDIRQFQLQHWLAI
T3 sequence (P35367 whole entry): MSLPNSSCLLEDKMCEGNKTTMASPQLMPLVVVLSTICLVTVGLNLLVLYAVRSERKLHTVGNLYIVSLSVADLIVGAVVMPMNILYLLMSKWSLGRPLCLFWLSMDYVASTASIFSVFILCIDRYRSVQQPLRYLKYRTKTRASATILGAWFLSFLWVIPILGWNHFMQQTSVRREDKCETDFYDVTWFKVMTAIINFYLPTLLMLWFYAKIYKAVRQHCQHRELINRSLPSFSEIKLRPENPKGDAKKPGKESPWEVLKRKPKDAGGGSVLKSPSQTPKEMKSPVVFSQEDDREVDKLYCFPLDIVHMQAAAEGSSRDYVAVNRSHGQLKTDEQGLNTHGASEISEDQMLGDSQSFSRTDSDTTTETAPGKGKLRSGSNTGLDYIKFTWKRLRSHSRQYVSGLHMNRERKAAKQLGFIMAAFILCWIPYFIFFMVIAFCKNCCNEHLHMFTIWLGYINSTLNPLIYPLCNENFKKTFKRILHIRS
T6 sequence (P35354 18-604): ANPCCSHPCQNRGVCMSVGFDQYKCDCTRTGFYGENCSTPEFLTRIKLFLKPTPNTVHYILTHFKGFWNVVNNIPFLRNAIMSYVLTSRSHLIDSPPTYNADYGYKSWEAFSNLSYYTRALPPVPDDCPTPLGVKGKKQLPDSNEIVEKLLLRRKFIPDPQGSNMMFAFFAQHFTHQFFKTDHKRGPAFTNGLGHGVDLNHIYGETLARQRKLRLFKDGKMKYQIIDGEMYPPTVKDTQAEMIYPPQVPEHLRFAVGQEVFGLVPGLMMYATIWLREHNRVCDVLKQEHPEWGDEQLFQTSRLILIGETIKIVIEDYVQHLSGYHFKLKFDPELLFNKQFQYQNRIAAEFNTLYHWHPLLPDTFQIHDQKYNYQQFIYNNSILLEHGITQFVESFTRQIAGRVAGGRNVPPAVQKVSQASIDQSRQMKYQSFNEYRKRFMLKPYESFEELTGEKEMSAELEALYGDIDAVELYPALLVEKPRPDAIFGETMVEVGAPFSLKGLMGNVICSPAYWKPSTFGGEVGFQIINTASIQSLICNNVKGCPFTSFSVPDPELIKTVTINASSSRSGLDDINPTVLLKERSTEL
T5 sequence (P12822 34-1310): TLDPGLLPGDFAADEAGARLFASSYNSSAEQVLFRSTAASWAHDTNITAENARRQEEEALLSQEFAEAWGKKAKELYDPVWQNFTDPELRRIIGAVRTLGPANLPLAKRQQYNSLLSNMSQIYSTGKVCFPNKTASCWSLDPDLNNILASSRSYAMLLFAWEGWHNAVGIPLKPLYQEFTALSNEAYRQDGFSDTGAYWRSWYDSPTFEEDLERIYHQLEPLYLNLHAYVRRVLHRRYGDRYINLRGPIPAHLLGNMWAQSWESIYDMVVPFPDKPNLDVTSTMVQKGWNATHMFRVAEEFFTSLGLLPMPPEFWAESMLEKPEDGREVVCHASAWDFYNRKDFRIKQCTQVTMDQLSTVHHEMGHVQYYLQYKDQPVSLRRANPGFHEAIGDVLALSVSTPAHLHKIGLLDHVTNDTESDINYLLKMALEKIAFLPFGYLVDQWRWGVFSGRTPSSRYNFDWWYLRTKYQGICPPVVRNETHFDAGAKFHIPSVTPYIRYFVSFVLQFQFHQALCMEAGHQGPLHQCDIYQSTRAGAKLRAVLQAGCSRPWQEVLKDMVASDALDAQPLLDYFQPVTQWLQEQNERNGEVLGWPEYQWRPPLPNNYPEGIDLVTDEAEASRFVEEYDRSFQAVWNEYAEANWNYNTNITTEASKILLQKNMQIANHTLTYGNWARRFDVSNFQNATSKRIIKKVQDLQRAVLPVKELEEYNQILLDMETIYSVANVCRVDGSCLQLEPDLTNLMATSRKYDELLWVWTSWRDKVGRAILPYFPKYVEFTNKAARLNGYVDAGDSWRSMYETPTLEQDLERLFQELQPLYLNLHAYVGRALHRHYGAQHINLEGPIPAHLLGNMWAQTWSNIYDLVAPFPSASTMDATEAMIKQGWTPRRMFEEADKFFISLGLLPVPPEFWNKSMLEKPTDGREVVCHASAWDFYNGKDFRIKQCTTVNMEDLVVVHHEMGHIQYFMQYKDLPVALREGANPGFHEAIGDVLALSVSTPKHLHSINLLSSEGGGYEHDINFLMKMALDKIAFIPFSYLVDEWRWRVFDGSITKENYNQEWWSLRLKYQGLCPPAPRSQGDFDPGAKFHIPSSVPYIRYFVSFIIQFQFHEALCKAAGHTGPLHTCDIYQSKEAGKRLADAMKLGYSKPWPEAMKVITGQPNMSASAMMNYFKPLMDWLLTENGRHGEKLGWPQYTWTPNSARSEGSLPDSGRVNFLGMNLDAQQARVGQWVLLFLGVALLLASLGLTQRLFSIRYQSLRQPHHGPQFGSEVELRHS
T2 sequence (P25025 whole entry): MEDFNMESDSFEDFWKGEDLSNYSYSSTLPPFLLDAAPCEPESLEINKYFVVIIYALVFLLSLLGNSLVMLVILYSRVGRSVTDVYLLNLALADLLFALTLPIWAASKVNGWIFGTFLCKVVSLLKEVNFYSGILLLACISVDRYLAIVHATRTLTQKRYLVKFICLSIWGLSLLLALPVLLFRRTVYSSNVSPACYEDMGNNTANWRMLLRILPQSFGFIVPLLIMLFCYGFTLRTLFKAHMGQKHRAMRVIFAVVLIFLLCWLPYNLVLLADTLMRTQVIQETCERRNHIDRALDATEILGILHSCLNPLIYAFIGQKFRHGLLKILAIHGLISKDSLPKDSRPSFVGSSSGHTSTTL
T4 sequence (P06239 whole entry): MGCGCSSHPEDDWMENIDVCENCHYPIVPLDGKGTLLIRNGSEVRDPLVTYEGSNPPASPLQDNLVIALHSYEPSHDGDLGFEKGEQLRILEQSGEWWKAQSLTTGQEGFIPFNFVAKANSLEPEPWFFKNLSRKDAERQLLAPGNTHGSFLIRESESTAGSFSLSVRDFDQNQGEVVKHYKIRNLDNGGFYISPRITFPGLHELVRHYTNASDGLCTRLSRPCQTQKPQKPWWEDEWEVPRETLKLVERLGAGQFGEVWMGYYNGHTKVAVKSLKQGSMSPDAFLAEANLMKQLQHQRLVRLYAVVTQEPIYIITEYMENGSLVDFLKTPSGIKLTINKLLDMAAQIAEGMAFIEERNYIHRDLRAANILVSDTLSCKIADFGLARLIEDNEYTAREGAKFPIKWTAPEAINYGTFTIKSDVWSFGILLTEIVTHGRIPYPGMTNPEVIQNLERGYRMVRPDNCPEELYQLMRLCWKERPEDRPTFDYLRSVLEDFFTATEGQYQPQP

Broadly, the IC50 is the concentration at which inhibition is half-maximal. Low values mean greater potency, high ones weaker potency. One may read the Ki as a measure of affinity in units of concentration, obtained from inhibition or displacement. Low readings indicate a stronger hold on the target, high ones a looser hold on the target. Regarding `O=S(=O)(c1cccc(F)c1)n1ccc2c(N3CCNCC3)nc3ccccc3c21` [FPPQ, 1-[(3-Fluorophenyl)sulfonyl]-4-(piperazin-1-yl)-1H-pyrrolo[3,2-c]quinoline dihydrochloride], the IC50 in assay [1] is 1.25 µM; against Histamine H1, 0.46 µM. Besides, the values for the Ki (in assay [1]; at Histamine H1) were 1.24 µM and 0.22 µM, respectively. Moreover, the inhibition at 0.01 µM in assay [1] (read-out: %inh, 10 nM) was determined as 1%; at Histamine H1 (read-out: %inh, 10 nM) it was 4%. The inhibition at 0.1 µM was 8% in assay [1] (read-out: %inh, 0.1 μM) and 19% at Histamine H1 (read-out: %inh, 0.1 μM). In addition, the inhibition at 1 µM was determined as 42% in assay [1] (read-out: %inh, 1 μM) and 67% on Histamine H1 (read-out: %inh, 1 μM). The inhibition at 10 µM in assay [1] (read-out: %inh, 10 μM) stood at 94%; in assay [1] (setting [2]), 96%; at Chemokine CCR2 (IL-8RB), 21%; at Histamine H1 (read-out: %inh, 10 μM) it was 97%; on Histamine H1 (setting [2]) it was 98%; against Protein Tyr Kinase, LCK, 6%. Further, the inhibition at 10 µM at ACE was -9%; at COX-2 it was -13%.
